Source: US10765662B2, “Mono- or di-substituted indole derivatives as dengue viral replication inhibitors” (Janssen Pharmaceuticals, Inc., priority 2015, dated 2020)

How the values were obtained:
[1] = test system: DENV-2 16681 strain labeled with enhanced green fluorescent protein; experiment: DENV-2 antiviral assay (eGFP fluorescence read-out in Vero cells); type: cell-based, Dengue virus; conditions: DENV-2 16681 eGFP, MOI 0.5, 3 days
Method: The antiviral activity of all the compounds of the invention was tested against the DENV-2 16681 strain which was labeled with enhanced green fluorescent protein (eGPF). The culture medium consists of minimal essential medium supplemented with 2% of heat-inactivated fetal calf serum, 0.04% gentamycin (50 mg/mL) and 2 mM of L-glutamine. Vero cells, obtained from ECACC, were suspended in culture medium and 25 μL was added to 384-well plates (2500 cells/well), which already contain the antiviral compounds. Typically, these plates contain a 5-fold serial dilution of 9 dilution steps of the test compound at 200 times the final concentration in 100% DMSO (200 nL). […] Finally, each plate contains wells which are assigned as virus controls (containing cells and virus in the absence of compound), cell controls (containing cells in the absence of virus and compound) and medium controls (containing medium in the absence of cells, virus and compounds). To the wells assigned as medium control, 25 μL of culture medium was added instead of Vero cells. Once the cells were added to the plates, the plates were incubated for 30 minutes at room temperature to allow the cells to distribute evenly within the wells. Next, the plates were incubated in a fully humidified incubator (37° C., 5% CO2) until the next day. Then, DENV-2 strain 16681, labeled with eGFP, was added at a multiplicity of infection (MOI) of 0.5. Therefore, 15 μL of virus suspension was added to all the wells containing test compound and to the wells assigned as virus control. In parallel, 15 μL of culture medium was added to the medium and cell controls. Next, the plates were incubated for 3 days in a fully humidified incubator (37° C., 5% CO2). At the day of the read out, the eGFP fluorescence was measured using an automated fluorescence microscope at 488 nm (blue laser). Using an in-house LIMS system, inhibition dose response curves for each compound were calculated and the half maximal effective concentration (EC50) was determined. Therefore, the percent inhibition (I) for every test concentration is calculated using the following formula: I=100*([…])/(SVC−SCC); ST, SCC and SVC are the amount of eGFP signal in the test compound, cell control and virus control wells, respectively. The EC50 represents the concentration of a compound at which the virus replication is inhibited with 50%, as measured by a 50% reduction of the eGFP fluorescent intensity compared to the virus control. The EC50 is calculated using linear interpolation (Table 1).

in vitro [2] = type: cell-based; conditions: African green monkey, CC50
Method: (§1) In parallel, the toxicity of the compounds was assessed on the same plates. Once the read-out for the eGFP signal was done, 40 μL of ATPlite, a cell viability stain, was added to all wells of the 384-well plates. ATP is present in all metabolically active cells and the concentration declines very rapidly when the cells undergo necrosis or apoptosis. The ATPLite assay system is based on the production of light caused by the reaction of ATP with added luciferase and D-luciferin. The plates were incubated for 10 minutes at room temperature. Next, the plates were measured on a ViewLux. The half maximal cytotoxic concentration (CC50) was also determined, defined as the concentration required to reduce the luminescent signal by 50% compared to that of the cell control wells. Finally, the selectivity index (SI) was determined for the compounds, which was calculated as followed: SI=CC50/EC50.

Vero cells = experiment: in vitro; type: cell-based; conditions: African green monkey
Method: as §1

DENV-1 strain TC974#666 = experiment: Tetravalent RT-qPCR assay Protocol A, serotype 1; type: cell-based; conditions: Dengue virus, DENV1, 72 h; RT-qPCR serotype 1 TC974#666, Vero cells, day 3
Method: (§2) The antiviral activity of the compounds of the invention was tested against DENV-1 strain TC974#666 (NCPV), DENV-2 strain 16681, DENV-3 strain H87 (NCPV) and DENV-4 strains H241 (NCPV) and EDEN (SG/06K2270DK1/2005; GenBank accession number QG398256) in a RT-qPCR assay. Therefore, Vero cells were infected with either DENV-1, or -2, or -3, or -4 in the presence or absence of test compounds. At day 3 post-infection, the cells were lysed and cell lysates were used to prepare cDNA of both a viral target (the 3′UTR of DENV; Table 2) and a cellular reference gene (β-actin, Table 2). Subsequently, a duplex real time PCR was performed on a Lightcycler480 instrument. The generated Cp value is inversely proportional to the amount of RNA expression of these targets. Inhibition of DENV replication by a test compound results in a shift of Cp's for the 3′UTR gene. On the other hand, if a test compound is toxic to the cells, a similar effect on β-actin expression will be observed. The comparative ΔΔCp method is used to calculate EC50, which is based on the relative gene expression of the target gene (3′UTR) normalized with the cellular housekeeping gene (β-actin). In addition, CC50 values are determined based on the Cp values acquired for the housekeeping gene β-actin.
(§3) The culture medium consisted of minimal essential medium supplemented with 2% of heat-inactivated fetal calf serum, 0.04% gentamycin (50 mg/mL) and 2 mM of L-glutamine. Vero cells, obtained from ECACC, were suspended in culture medium and 75 μL/well was added in 96-well plates (10000 cells/well), which already contain the antiviral compounds. […] In addition, each plate contains wells which are assigned as virus controls (containing cells and virus in the absence of compound) and cell controls (containing cells in the absence of virus and compound). Once the cells were added in the plates, the plates were incubated in a fully humidified incubator (37° C., 5% CO2) until the next day. Dengue viruses serotype-1, 2, 3 and 4 were diluted in order to obtain a Cp of ˜22-24 in the assay. Therefore, 25 μL of virus suspension, was added to all the wells containing test compound and to the wells assigned as virus control. In parallel, 25 μL of culture medium was added to the cell controls. Next, the plates were incubated for 3 days in a fully humidified incubator (37° C., 5% CO2). After 3 days, the supernatant was removed from the wells and the cells were washed twice with ice-cold PBS (˜100 μL). The cell pellets within the 96-well plates were stored at −80° C. for at least 1 day. Next, RNA was extracted using the Cells-to-CT™ lysis kit, according to the manufacturer's guideline (Life Technologies). The cell lysates can be stored at −80° C. or immediately used in the reverse transcription step.
(§4) In preparation of the reverse transcription step, mix A (table 3A) was prepared and 7.57 μL/well was dispensed in a 96-well plate. After addition of 5 μL of the cell lysates, a five minute denaturation step at 75° C. was performed (table 3B). Afterwards, 7.43 μL of mix B was added (table 3C) and the reverse transcription step was initiated (table 3D) to generate cDNA.
(§5) Finally, a RT-qPCR mix was prepared, mix C (table 4A), and 22.02 μL/well was dispensed in 96-well LightCycler qPCR plates to which 3 μL of cDNA was added and the qPCR was performed according to the conditions in table 4B on a LightCycler 480.
(§6) Using the LightCycler software and an in-house LIMS system, dose response curves for each compound were calculated and the half maximal effective concentration (EC50) and the half maximal cytotoxic concentration (CC50) were determined (Tables 5-8).

DENV-2 strain 16681 = experiment: Tetravalent RT-qPCR assay Protocol A, serotype 2; type: cell-based; conditions: Dengue virus, DENV2, 72 h; RT-qPCR serotype 2 16681, Vero cells, day 3
Method: as §2, §3, §4, §5, §6

DENV-3 strain H87 = experiment: Tetravalent RT-qPCR assay Protocol A, serotype 3; type: cell-based; conditions: Dengue virus, DENV3, 72 h; RT-qPCR serotype 3 H87, Vero cells, day 3
Method: as §2, §3, §4, §5, §6

DENV-4 strain H241 = experiment: Tetravalent RT-qPCR assay Protocol A, serotype 4 H241; type: cell-based; conditions: Dengue virus, DENV4, Vero, 72 h
Method: as §2, §3, §4, §5, §6

in vitro [3] = type: cell-based; conditions: African green monkey
Method: as §2, §3, §6

[4] = Dengue virus, DENV2, Vero, 72 h

SMILES | EC50 [1, 4] [nM] | CC50 (in vitro [2]) [nM] | melting point [°C] | EC50 [1] [nM] | CC50 (Vero cells) [nM] | EC50 (DENV-1 strain TC974#666) [nM] | EC50 (DENV-2 strain 16681) [nM] | EC50 (DENV-3 strain H87) [nM] | EC50 (DENV-4 strain H241) [nM] | CC50 at 3 days (in vitro [3]) [nM]
COc1cc(NC(C(=O)c2c[nH]c3cc(Cl)ccc23)c2ccc(Cl)cc2OCCO)cc(S(C)(=O)=O)c1 (racemic) [Compound 2, 1-(6-chloro-1H-indol-3-yl)-2-(4-chloro-2-(2-hydroxyethoxy)phenyl)-2-((3-methoxy-5-(methylsulfonyl)phenyl)amino)ethanone] | 0.27 | 4200 | 121 |  |  |  |  |  |  | 
COc1cc(NC(C(=O)c2c[nH]c3cc(OC)ccc23)c2ccc(Cl)cc2OCCO)cc(S(C)(=O)=O)c1 (racemic) [Compound 3, 2-(4-chloro-2-(2-hydroxyethoxy)phenyl)-1-(6-methoxy-1H-indol-3-yl)-2-((3-methoxy-5-(methylsulfonyl)phenyl)amino)ethanone] | 0.54 | 12000 | 149 |  |  |  |  |  |  | 
COc1cc(NC(C(=O)c2c[nH]c3c(C)c(F)ccc23)c2ccc(Cl)cc2OCCO)cc(S(C)(=O)=O)c1 (racemic) [Compound 4, 2-(4-chloro-2-(2-hydroxyethoxy)phenyl)-1-(6-fluoro-7-methyl-1H-indol-3-yl)-2-((3-methoxy-5-(methylsulfonyl)phenyl)amino)ethanone] | 0.42 | 3700 | 173 |  |  |  |  |  |  | 
COc1cc(NC(C(=O)c2c[nH]c3cc(F)ccc23)c2ccc(Cl)cc2OCCO)cc(S(C)(=O)=O)c1 (single isomer, unassigned) [Compound 1A, 2-(4-chloro-2-(2-hydroxyethoxy)phenyl)-1-(6-fluoro-1H-indol-3-yl)-2-((3-methoxy-5-(methylsulfonyl)phenyl)amino)ethanone] |  |  |  | 0.24 | 3700 | 1.3 | 0.24 | 9.6 | 71 | > 2500
COc1cc(NC(C(=O)c2c[nH]c3cc(F)c(C)cc23)c2ccc(Cl)cc2OCCO)cc(S(C)(=O)=O)c1 (single isomer, unassigned) [Compound 8A, 2-(4-chloro-2-(2-hydroxyethoxy)phenyl)-1-(6-fluoro-5-methyl-1H-indol-3-yl)-2-((3-methoxy-5-(methylsulfonyl)phenyl)amino)ethanone] |  | > 2500 |  | 0.11 |  | 0.39 | 0.27 | 4.2 | 36 | 
COc1cc(NC(C(=O)c2c[nH]c3ccc(C(F)(F)F)cc23)c2ccc(Cl)cc2OCCO)cc(S(C)(=O)=O)c1 (single isomer, unassigned) [Compound 9B, 2-(4-chloro-2-(2-hydroxyethoxy)phenyl)-2-((3-methoxy-5-(methylsulfonyl)phenyl)amino)-1-(5-(trifluoromethyl)-1H-indol-3-yl)ethanone] |  |  |  | 0.061 | > 2400 | 0.083 | 0.054 | 1.2 | 8.1 | 2900
COc1cc(NC(C(=O)c2c[nH]c3ccc(OC(F)(F)F)cc23)c2ccc(Cl)cc2OCCO)cc(S(C)(=O)=O)c1 (single isomer, unassigned) [Compound 10B, 2-(4-chloro-2-(2-hydroxyethoxy)phenyl)-2-((3-methoxy-5-(methylsulfonyl)phenyl)amino)-1-(5-(trifluoromethoxy)-1H-indol-3-yl)ethanone] |  |  |  | 0.067 | 2400 | 0.071 | 0.049 | 1.4 | 6.9 | > 2400
COc1cc(NC(C(=O)c2c[nH]c3cc(OC)c(OC(F)(F)F)cc23)c2ccc(Cl)cc2OCCO)cc(S(C)(=O)=O)c1 (single isomer, unassigned) [Compound 11B, 2-(4-chloro-2-(2-hydroxyethoxy)phenyl)-2-((3-methoxy-5-(methylsulfonyl)phenyl)amino)-1-(6-methoxy-5-(trifluoromethoxy)-1H-indol-3-yl)ethanone] |  |  |  | 0.089 | > 2300 | 0.12 | 0.062 | 1.3 | 11 | > 2500
COc1cc(NC(C(=O)c2c[nH]c3c(C)cc(OC(F)(F)F)cc23)c2ccc(Cl)cc2OCCO)cc(S(C)(=O)=O)c1 (single isomer, unassigned) [Compound 12B, 2-(4-chloro-2-(2-hydroxyethoxy)phenyl)-2-((3-methoxy-5-(methylsulfonyl)phenyl)amino)-1-(7-methyl-5-(trifluoromethoxy)-1H-indol-3-yl)ethanone] |  |  |  | 0.034 |  | 0.086 | 0.053 | 1.1 | 5.5 | > 2300
